Source: patent US11878970B2, “Allosteric chromenone inhibitors of phosphoinositide 3-kinase (PI3K) for the treatment of disease” (Petra Pharma Corporation, priority 2021, dated 2024)

Tests used:
[1] = target: T1, PI3K-α (PIK3CA) wild-type (WT), p110α/p85α complex (Homo sapiens, UniProt P42336); experiment: PI3K-alpha kinase (PIK3CA) biochemical activity, ADP-Glo, wild-type
T1 construct: Recombinant, catalytically active human full length PIK3KA Wild-type and H1047R mutant; 6×His (N); purchased EMD Millipore Sigma 14-602M
Summary of the method: (§1)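 ADP formation measured by ADP-Glo luminescence after reaction at 27 °C to about 10% ATP turnover, using 20 uM ATP, 50 uM PIP2diC8 or soy PI lipid, HEPES pH 7.4 with MgCl2. Enzyme (1-5 nM WT or H1047R p110α/p85α) and compound preincubated 1 h first; 10-point 1:3 curves fitted four-parameter for IC50.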

[2] = target: PI3K-α (PIK3CA) in MDA-MB-453 cells (Homo sapiens, UniProt P42336); experiment: PI3K-alpha kinase (PIK3CA) in vitro cell based assay, MDA-MB-453 cells, SureFire Ultra AlphaLisa; settings: read-out: PI3K-α (PIK3CA) in vitro cell based assay IC50
Sequence of PI3K-α (PIK3CA) in MDA-MB-453 cells (P27986 2-724): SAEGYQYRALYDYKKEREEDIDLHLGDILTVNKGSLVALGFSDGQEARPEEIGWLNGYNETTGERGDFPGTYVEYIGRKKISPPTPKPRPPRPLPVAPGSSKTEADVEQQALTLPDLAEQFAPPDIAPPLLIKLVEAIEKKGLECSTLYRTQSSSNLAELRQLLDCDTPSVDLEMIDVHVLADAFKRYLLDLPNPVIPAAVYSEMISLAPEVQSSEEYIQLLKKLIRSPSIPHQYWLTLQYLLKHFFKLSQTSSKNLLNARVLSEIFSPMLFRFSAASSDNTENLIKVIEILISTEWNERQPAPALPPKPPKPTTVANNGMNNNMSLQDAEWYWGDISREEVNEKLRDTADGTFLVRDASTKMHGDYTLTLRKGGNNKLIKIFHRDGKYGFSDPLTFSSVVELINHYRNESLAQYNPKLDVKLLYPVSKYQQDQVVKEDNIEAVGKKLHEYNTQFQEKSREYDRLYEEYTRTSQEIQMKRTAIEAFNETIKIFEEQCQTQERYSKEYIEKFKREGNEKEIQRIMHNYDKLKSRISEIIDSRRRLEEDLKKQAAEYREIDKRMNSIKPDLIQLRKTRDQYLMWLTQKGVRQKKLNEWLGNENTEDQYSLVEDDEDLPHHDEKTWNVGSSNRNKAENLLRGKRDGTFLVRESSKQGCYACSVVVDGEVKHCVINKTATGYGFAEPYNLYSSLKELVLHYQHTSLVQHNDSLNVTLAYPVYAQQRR
Sequence of PI3K-α (PIK3CA) in MDA-MB-453 cells (P42336 whole entry): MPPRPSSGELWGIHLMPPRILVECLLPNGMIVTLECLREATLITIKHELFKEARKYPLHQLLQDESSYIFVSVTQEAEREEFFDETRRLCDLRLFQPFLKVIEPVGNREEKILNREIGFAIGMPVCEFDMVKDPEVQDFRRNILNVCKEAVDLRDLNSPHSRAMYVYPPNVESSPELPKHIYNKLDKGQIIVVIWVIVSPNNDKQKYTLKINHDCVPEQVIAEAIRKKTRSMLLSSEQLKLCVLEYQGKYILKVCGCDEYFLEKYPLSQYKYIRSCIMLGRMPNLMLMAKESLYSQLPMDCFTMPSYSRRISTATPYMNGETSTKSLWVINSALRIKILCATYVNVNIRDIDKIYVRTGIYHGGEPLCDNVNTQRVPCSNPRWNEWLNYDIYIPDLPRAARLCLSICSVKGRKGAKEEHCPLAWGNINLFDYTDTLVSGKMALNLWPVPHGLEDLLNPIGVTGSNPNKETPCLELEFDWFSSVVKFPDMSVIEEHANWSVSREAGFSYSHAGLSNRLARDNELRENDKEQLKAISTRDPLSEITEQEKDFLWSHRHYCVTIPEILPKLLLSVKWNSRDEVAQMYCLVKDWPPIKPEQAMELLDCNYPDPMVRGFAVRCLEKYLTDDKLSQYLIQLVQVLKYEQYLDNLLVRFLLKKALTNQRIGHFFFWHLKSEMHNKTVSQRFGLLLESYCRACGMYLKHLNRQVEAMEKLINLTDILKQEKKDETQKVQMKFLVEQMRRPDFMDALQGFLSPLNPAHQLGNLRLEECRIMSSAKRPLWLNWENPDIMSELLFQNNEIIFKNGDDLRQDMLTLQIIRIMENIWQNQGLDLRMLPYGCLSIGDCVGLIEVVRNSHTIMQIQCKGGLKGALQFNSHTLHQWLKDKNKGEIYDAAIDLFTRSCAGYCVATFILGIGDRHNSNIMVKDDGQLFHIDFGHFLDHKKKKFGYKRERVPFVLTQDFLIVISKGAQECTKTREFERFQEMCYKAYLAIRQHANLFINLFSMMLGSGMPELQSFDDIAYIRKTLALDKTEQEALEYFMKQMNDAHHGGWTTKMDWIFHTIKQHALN
Summary of the method: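 Cells treated 3 h in serum-free MEM with 1 μg/mL insulin, 10-point 1:3 series in 0.3% DMSO, then lysed for SureFire Ultra AlphaLisa read-out. Inhibition normalized to DMSO (max) and 1 μM GDC-0032 (min); duplicate averages fitted by 4-parameter logistic for relative IC50.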

[3] = target: T2, PI3K-α (PIK3CA) H1047R mutant, p110α/p85α complex (Homo sapiens, UniProt P42336, H1047R); experiment: PI3K-alpha kinase (PIK3CA) biochemical activity, ADP-Glo, H1047R mutant
T2 construct: Recombinant, catalytically active human full length PIK3KA Wild-type and H1047R mutant; 6×His (N); purchased EMD Millipore Sigma 14-792M
T2 sequence (P42336 whole entry H1047R): as the sequence (P42336 whole entry) above, with H1047R counted along it
T2 sequence (P27986 whole entry partner): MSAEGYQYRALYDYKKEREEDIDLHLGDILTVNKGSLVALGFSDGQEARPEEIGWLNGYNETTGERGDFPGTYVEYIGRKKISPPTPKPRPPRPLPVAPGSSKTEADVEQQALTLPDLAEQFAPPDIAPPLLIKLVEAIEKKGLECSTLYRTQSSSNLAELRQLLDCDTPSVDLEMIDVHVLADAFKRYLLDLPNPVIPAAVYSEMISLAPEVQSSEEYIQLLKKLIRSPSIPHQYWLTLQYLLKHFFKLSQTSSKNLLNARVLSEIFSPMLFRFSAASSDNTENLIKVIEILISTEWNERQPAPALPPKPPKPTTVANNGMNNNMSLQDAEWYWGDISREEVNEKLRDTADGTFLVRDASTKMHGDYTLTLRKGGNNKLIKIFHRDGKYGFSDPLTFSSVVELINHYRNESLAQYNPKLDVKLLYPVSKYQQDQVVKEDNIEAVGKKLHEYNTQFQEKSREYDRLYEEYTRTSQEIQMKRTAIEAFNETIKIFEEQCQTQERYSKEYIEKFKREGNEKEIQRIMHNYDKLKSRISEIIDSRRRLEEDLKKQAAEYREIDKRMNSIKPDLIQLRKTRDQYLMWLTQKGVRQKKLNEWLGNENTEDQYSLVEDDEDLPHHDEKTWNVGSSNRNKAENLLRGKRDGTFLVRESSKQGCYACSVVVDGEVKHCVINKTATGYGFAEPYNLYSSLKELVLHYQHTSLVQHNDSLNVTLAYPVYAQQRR
Summary of the method: as §1

[4] = PIP2diC8 lipid substrate (footnote 1)

Compound	IC50 ([1]; Soy PI lipid substrate) [nM]	IC50 [2] [nM]	IC50 ([3]; Soy PI lipid substrate) [nM]	IC50 [1, 4] [nM]	IC50 [3, 4] [nM]
Cc1cc(C(C)Nc2ccccc2C(=O)O)c2oc(-c3cccc4cn(C)nc34)cc(=O)c2c1 (single isomer, unassigned) [Example 116, 2-[1-[6-Methyl-2-(2-methylindazol-7-yl)-4-oxo-chromen-8-yl]ethylamino]benzoic acid]	> 10000	100 to 500	< 500		
Cc1cc(C(C)Nc2ccccc2C(=O)O)c2oc(-c3cc4ccccc4[nH]3)c(C)c(=O)c2c1 (single isomer, unassigned) [Example 52, 2-[1-[2-(1H-Indol-2-yl)-3,6-dimethyl-4-oxo-chromen-8-yl]ethylamino]benzoic acid]	500 to 1000	< 50	< 500		
Cc1cc(C(C)Nc2ccccc2C(=O)O)c2oc(-c3ccc4[nH]ncc4c3)cc(=O)c2c1 (single isomer, unassigned) [Example 60, 2-[1-[2-(1H-Indazol-5-yl)-6-methyl-4-oxo-chromen-8-yl]ethylamino]benzoic acid]	500 to 1000	< 50	< 500		
Cc1cc(C(C)Nc2ccccc2C(=O)O)c2oc(-c3ccc4nc(C)sc4n3)cc(=O)c2c1 (single isomer, unassigned) [Example 139, 2-[1-[6-Methyl-2-(2-methylthiazolo[5,4-b]pyridin-5-yl)-4-oxo-chromen-8-yl]ethylamino]benzoic acid]	1000 to 5000	< 50	< 500		
Cc1cc(C(C)Nc2ccccc2C(=O)O)c2oc(-n3ncc4c(C)cccc43)cc(=O)c2c1 (single isomer, unassigned) [Example 88, 2-[1-[6-Methyl-2-(4-methylindazol-1-yl)-4-oxo-chromen-8-yl]ethylamino]benzoic acid]	500 to 1000	100 to 500	< 500		
Cc1cc(C(C)Nc2ccccc2C(=O)O)c2oc(-c3ccc4cnn(C)c4c3)cc(=O)c2c1 (single isomer, unassigned) [Example 25, 2-[1-[6-Methyl-2-(1-methylindazol-6-yl)-4-oxo-chromen-8-yl]ethylamino]benzoic acid]	< 500	50 to 100	< 500		
Cc1cc(C(C)Nc2ccccc2C(=O)O)c2oc(-c3cc4ccncc4o3)cc(=O)c2c1 (stereo not drawn) [Example 7, 2-[1-(2-Furo[2,3-c]pyridin-2-yl-6-methyl-4-oxo-chromen-8-yl)ethylamino]benzoic acid]		50 to 100		< 500	< 500
Cc1cc(C(C)Nc2ccccc2C(=O)O)c2oc(-c3ccc4cn(C)nc4c3)cc(=O)c2c1 (single isomer, unassigned) [Example 1, 2-[1-[6-Methyl-2-(2-methylindazol-6-yl)-4-oxo-chromen-8-yl]ethylamino]benzoic acid]	1000 to 5000	50 to 100	< 500		
Cc1cc([C@@H](C)Nc2ccc(Cl)nc2C(=O)O)c2oc(-c3nc4ccccc4o3)c(C)c(=O)c2c1 [Example 263, 3-[[(1R)-1-[2-(1,3-benzoxazol-2-yl)-3,6-dimethyl-4-oxo-chromen-8-yl]ethyl]amino]-6-chloro-pyridine-2-carboxylic acid; 2,2,2-trifluoroacetic acid]	1000 to 5000	< 50	< 500		
Cc1cc(C(C)Nc2ccccc2C(=O)O)c2oc(-c3cc4ccccc4[nH]3)cc(=O)c2c1 (single isomer, unassigned) [Example 68, 2-[1-[2-(1H-Indol-2-yl)-6-methyl-4-oxo-chromen-8-yl]ethylamino]benzoic acid]	500 to 1000	< 50	< 500		
Cc1cc(C(C)Nc2ccccc2C(=O)O)c2oc(-c3ccc4[nH]c(C)nc4c3)cc(=O)c2c1 (single isomer, unassigned) [Example 65, 2-[1-[6-Methyl-2-(2-methyl-1H-benzimidazol-5-yl)-4-oxo-chromen-8-yl]ethylamino]benzoic acid]	1000 to 5000	100 to 500	< 500		
Cc1cc(C(C)Nc2ccccc2C(=O)O)c2oc(-c3ccc4cn[nH]c4c3)cc(=O)c2c1 (single isomer, unassigned) [Example 63, 2-[1-[2-(1H-Indazol-6-yl)-6-methyl-4-oxo-chromen-8-yl]ethylamino]benzoic acid]	500 to 1000	< 50	< 500		

Now from value to molecule, other results behind:

IC50 ([1]; Soy PI lipid substrate) [nM]	IC50 [2] [nM]	IC50 ([3]; Soy PI lipid substrate) [nM]	Compound	IC50 [1, 4] [nM]	IC50 [3, 4] [nM]
500 to 1000	< 50	< 500	Cc1cc(C(C)Nc2ccccc2C(=O)O)c2oc(-c3ccc4nn(C)cc4c3)cc(=O)c2c1 (single isomer, unassigned) [Example 8, 2-[1-[6-Methyl-2-(2-methylindazol-5-yl)-4-oxo-chromen-8-yl]ethylamino]benzoic acid]		
1000 to 5000	< 50	< 500	CC(Nc1ccccc1C(=O)O)c1cc(F)cc2c(=O)cc(-c3ccc4nn(C)cc4c3)oc12 (single isomer, unassigned) [Example 55, 2-[1-[6-Fluoro-2-(2-methylindazol-5-yl)-4-oxo-chromen-8-yl]ethylamino]benzoic acid]		
1000 to 5000	100 to 500	500 to 1000	Cc1cc([C@@H](C)Nc2cccnc2C(=O)O)c2oc(-c3ccc4nn(C)cc4c3)cc(=O)c2c1 [Example 226, 3-[[(1R)-1-[6-Methyl-2-(2-methylindazol-5-yl)-4-oxo-chromen-8-yl]ethyl]amino]pyridine-2-carboxylic acid]		
< 500	100 to 500	< 500	Cc1cc([C@@H](C)Nc2cccc(F)c2C(=O)O)c2oc(-c3ccc4nc(C)cn4c3)c(C)c(=O)c2c1 [Example 229, 2-[[(1R)-1-[3,6-Dimethyl-2-(2-methylimidazo[1,2-a]pyridin-6-yl)-4-oxo-chromen-8-yl]ethyl]amino]-6-fluoro-benzoic acid]		
1000 to 5000	> 500	1000 to 5000	CC(Nc1ccccc1C(=O)O)c1cc(F)cc2c(=O)cc(-c3ccc4nn(C)cc4c3)oc12 (single isomer, unassigned) [Example 156, 2-[1-[6-Fluoro-2-(2-methylindazol-5-yl)-4-oxo-chromen-8-yl]ethylamino]benzoic acid]		
1000 to 5000	< 50	< 500	CC(Nc1ccccc1C(=O)O)c1cc(C(F)(F)F)cc2c(=O)cc(-c3ccc4c(cnn4C)c3)oc12 (single isomer, unassigned) [Example 109, 2-[1-[2-(1-Methylindazol-5-yl)-4-oxo-6-(trifluoromethyl)chromen-8-yl]ethylamino]benzoic acid]		
< 500	< 50	< 500	Cc1cc(C(C)Nc2ccccc2C(=O)O)c2oc(-c3cc4cnccc4o3)c(C)c(=O)c2c1 (single isomer, unassigned) [Example 153, 2-[1-(2-Furo[3,2-c]pyridin-2-yl-3,6-dimethyl-4-oxo-chromen-8-yl)ethylamino]benzoic acid]		
5000 to 10000	> 500	> 10000	Cc1cc(C(C)Nc2ccccc2C(=O)O)c2oc(-c3ccc4c(c3)CN(C)C4=O)cc(=O)c2c1 (single isomer, unassigned) [Example 32, 2-[1-[6-Methyl-2-(2-methyl-1-oxo-isoindolin-5-yl)-4-oxo-chromen-8-yl]ethylamino]benzoic acid]		
500 to 1000	< 50	< 500	Cc1cc(C(C)Nc2ccccc2C(=O)O)c2oc(-c3ccn4nccc4c3)cc(=O)c2c1 (single isomer, unassigned) [Example 113, 2-[1-(6-Methyl-4-oxo-2-pyrazolo[1,5-a]pyridin-5-yl-chromen-8-yl)ethylamino]benzoic acid]		
1000 to 5000	100 to 500	< 500	Cc1cc([C@@H](C)Nc2ccc(C(F)(F)F)nc2C(=O)O)c2oc(-c3ccc4nc(C)sc4n3)c(C)c(=O)c2c1 [Example 233, 3-[[(1R)-1-[3,6-Dimethyl-2-(2-methylthiazolo[5,4-b]pyridin-5-yl)-4-oxo-chromen-8-yl]ethyl]amino]-6-(trifluoromethyl)pyridine-2-carboxylic acid]		
< 500	< 50	< 500	Cc1cc(C(C)Nc2ccc(Cl)nc2C(=O)O)c2oc(-c3nn(C)c4ccccc34)c(C)c(=O)c2c1 (single isomer, unassigned) [Example 170, 6-Chloro-3-[1-[3,6-dimethyl-2-(1-methylindazol-3-yl)-4-oxo-chromen-8-yl]ethylamino]pyridine-2-carboxylic acid]		
< 500	50 to 100	< 500	Cc1cc([C@@H](C)Nc2cccc(F)c2C(=O)O)c2oc(-c3nn(C)c4ccccc34)c(C)c(=O)c2c1 [Example 230, 2-[[(1R)-1-[3,6-Dimethyl-2-(1-methylindazol-3-yl)-4-oxo-chromen-8-yl]ethyl]amino]-6-fluoro-benzoic acid]		
500 to 1000	100 to 500	< 500	Cc1cc(-c2cc(=O)c3cc(C(F)(F)F)cc(C(C)Nc4ccc(Cl)nc4C(=O)O)c3o2)cc2cn(C)nc12 (single isomer, unassigned) [Example 191, 6-Chloro-3-[1-[2-(2,7-dimethylindazol-5-yl)-4-oxo-6-(trifluoromethyl)chromen-8-yl]ethylamino]pyridine-2-carboxylic acid]		
